How the values were obtained:
[1] = tested on: 12 human cancer cell lines (U-373MG, U-87MG, SW1088, A549, A-427, HCT-15, LoVo, T-47D, MCF7, J82, T24, PC-3); assay: Cytotoxic activity on tumour cell lines in culture (MTT test); type: cell-based; details: Homo sapiens, mean IC50 calculated from the individual cytotoxic activities on each of the 12 tumour lines, 72 hours incubation
Method: 1—Cytotoxic Activity on Tumour Cell Lines in Culture (MTT Test)
The influence of the compounds of formula (I) and of (Ia) on tumour cells was evaluated using the MTT calorimetric test (T. Mosman, J. Immunol. Methods, 1983; 65: 55-63, J. Carmichael et al., Cancer Res. 1987; 47: 936-942).
The principle of the MTT test is based on the mitochondrial reduction by metabolically active alive cells of the yellow-coloured product MTT (3-(4,5-dimethylthiazol-2-yl)-2,5-diphenyltetrazolium bromide) to a blue-coloured product, formazan. The amount of formazan thus obtained is directly proportional to the amount of live cells present in the culture well or wells. This amount of formazan is measured by spectrophotometry.
The cell lines are maintained in monolayer culture at 37° C. in stoppered culture dishes containing 25 MM HEPES MEM (Minimum Essential Medium) base medium. This medium is well suited to the growth of a range of varied diploid or primary mammalian cells. This medium is subsequently supplemented: […]
with an amount of 5% of FCS (Foetal Calf Serum) decomplemented at 56° C. for 1 hour, with 0.6 mg/ml of L-glutamine, with 200 IU/ml of penicillin, with 200 μg/ml of streptomycin, with 0.1 mg/ml of gentamicin.
The 12 human cancer cell lines which were used were obtained from the American Type Culture Collection (ATCC, Rockville, Md., USA). These 12 cell lines are:
U-373MG (ATCC code: HTB-17) and U-87MG (ATCC code: HTB-14), which are two glioblastomas, SW1088 (ATCC code: HTB-12) which is an astrocytoma, A549 (ATCC code: CCL-185) and A-427 (ATCC code: HTB-53), which are two non-small-cell lung cancers, HCT-15 (ATCC code: CCL-225) and LoVo (ATCC code: CCL-229), which are two colorectal cancers, T-47D (ATCC code: HTB-133) and MCF7 (ATCC code: HTB-22), which are two breast cancers, J82 (ATCC code: HTB-1) and T24 (ATCC code: […]), which are two bladder cancers, PC-3 (ATCC code: CRL-1435), which is a prostate cancer.
Experimentally: 100 μl of a cell suspension comprising 20 000 to 50 000 (depending on the cell type used) cells/ml of culture medium are inoculated in flat-bottomed 96-well multi-well plates and are incubated at 37° C. under an atmosphere comprising 5% of CO2 and 70% humidity. After incubating for 24 hours, the culture medium is replaced with 100 μl of fresh medium comprising either the various test compounds at concentrations varying from 10^−5 to 10^−10 M of the solvent used to dissolve the -test products (control condition). After incubating for 72 hours under the above conditions, the culture medium is replaced with 100 μl of a yellowish solution of MTT dissolved, in a proportion of 1 mg/ml, in RPMI 1640. The microplates are reincubated for 3 hours at 37° C. and then centrifuged for 10 minutes at 400 g. The yellowish MTT solution is removed and the blue formazan crystals formed at the cellular level are dissolved in 100 μl of DMSO. The microplates are subsequently agitated for 5 minutes. The intensity of the resulting blue coloration, and thus of the conversion of the yellow MTT product into blue formazan by the cells which are still alive at the end of the experiment, is quantified by spectrophotometry using a device of DYNATECH IMOASSAY SYSTEM type at wavelengths of 570 nm and 630 nm corresponding respectively to the maximum absorption wavelengths of formazan and to the background noise. Software built into the spectrophotometer calculates the mean optical density values and the standard deviation (Std. Dev.) and standard error of the mean (SEM) values.
The inhibitory activity on the cell growth of the compounds of formula (I) and (Ia) on the various tumour cell lines was measured in comparison with that of the natural product.

[2] = Determination of the maximum tolerated dose (MTD); details: mouse, in vivo, ip; B6D2F1/Jico mice, single intraperitoneal administration, survival over 14 days, doses 2.5 to 160 mg/kg; read-out: DMT (mg/kg) (Maximum Tolerated Doses)
Method: 2—Determination of the Maximum Tolerated Dose (MTD)
The evaluation of the maximum tolerated dose was carried out on B6D2F1/Jico mice aged from 4 to 6 weeks. The compounds were administered intraperitoneally at increasing doses ranging from 2.5 to 160 mg/kg. The value of the MTD (expressed in mg/kg) is determined from the observation of the survival rates of the animals over a period of 14 days after a single administration of the product under consideration. The change in the weight of the animals is also monitored over this period. When that the value of the MTD is greater than 160 mg/kg, the value of the MTD is categorized as 160 mg/kg by default.

[3] = tested on: leukaemia cell model; details: cytotoxicity; cited from earlier work

Row | Compound | melting point [°C] | IC50 [1] [nM] | MTD at 14 days [2] [mg/kg] | ED50 [3] [µg/mL]
1 | O=C1c2ncccc2-c2nccc3c(Cl)cnc1c23 [CRL 8480, 4-Chloro-7H-pyrido[4,3,2-de][1,7]phenanthroline-7-one] | > 260 |  |  | 
2 | CN(C)c1ccnc2c1-c1nccc3ccnc(c13)C2=O [CRL 8367, 11-(Dimethylamino)-7H-pyrido[4,3,2-de][1,7]phenanthroline-7-one] |  | 1650 | 10 | 
3 | CN(C)c1cnc2c3c(nccc13)-c1cccnc1C2=O [CRL 8481, 4-Dimethylamino-7H-pyrido[4,3,2-de][1,7]phenanthroline-7-one] | > 260 |  |  | 
4 | COc1cc(OC)c2c(n1)C(=O)c1nccc3ccnc-2c13 [CRL 8485, 9,11-Dimethoxy-7H-pyrido[4,3,2-de][1,7]phenanthroline-7-one] | > 260 |  |  | 
5 | COc1ccnc2c1C(=O)c1nccc3ccnc-2c13 [CRL 8363, 8-Methoxy-7H-pyrido[4,3,2-de][1,10]phenanthroline-7-one] |  | 500 | 10 | 
6 | CCOC(=O)c1cnc2c(c1)-c1nccc3ccnc(c13)C2=O [CRL 8482, 10-Ethoxycarbonyl-7H-pyrido[4,3,2-de][1,7]phenanthroline-7-one] | 246 |  |  | 
7 | COc1cnc2c3c(nccc13)-c1ncccc1C2=O [CRL 8400, 4-Methoxy-7H-pyrido[4,3,2-de][1,10]phenanthroline-7-one] |  | 380 | > 160 | 
8 | COc1ccc2c(n1)C(=O)c1nccc3ccnc-2c13 [CRL 8484, 9-Methoxy-7H-pyrido[4,3,2-de][1,7]phenanthroline-7-one] | > 260 |  |  | 
9 | O=C1c2c(Cl)ccnc2-c2nccc3ccnc1c23 [CRL 8396, 8-Chloro-7H-pyrido[4,3,2-de][1,10]phenanthroline-7-one] |  | 600 | 20 | 
10 | O=C1c2nccc(O)c2-c2nccc3ccnc1c23 [CRL 8388, 11-Hydroxy-7H-pyrido[4,3,2-de][1,7]phenanthroline-7-one] |  | 6200 | 10 | 
11 | COc1cnc2c3c(nccc13)-c1cccnc1C2=O [CRL 8401, 4-Methoxy-7H-pyrido[4,3,2-de][1,7]phenanthroline-7-one] |  | 53 | > 160 | 
12 | I.I.O=C1c2ncccc2-c2nccc3c(O)cnc1c23 [CRL 8487, 4-Hydroxy-7H-pyrido[4,3,2-de][1,7]phenanthroline-7-one dihydroiodide] | > 260 |  |  | 
13 | O=C1c2nc(O)ccc2-c2nccc3ccnc1c23 [CRL 8483, 9-Hydroxy-7H-pyrido[4,3,2-de][1,7]phenanthroline-7-one] | > 260 |  |  | 
14 | CN(C)c1cc(Cl)nc2c1-c1nccc3ccnc(c13)C2=O [CRL 8486, 9-Chloro-11-dimethylamino-7H-pyrido[4,3,2-de][1,7]phenanthroline-7-one] | 246 |  |  | 
15 | COc1ccc2c(n1)C(=O)c1ncc(OC)c3ccnc-2c13 [CRL 8479, 4,9-Dimethoxy-7H-pyrido[4,3,2-de][1,7]phenanthroline-7-one] | > 260 |  |  | 
16 | COc1ccnc2c1-c1nccc3ccnc(c13)C2=O [CRL 8364, 11-methoxy-7H-pyrido[4,3,2-de][1,7]phenanthroline-7-one] |  | 270 | 5 | 
17 | 2-bromoleptoclinidone |  |  |  | 0.4
18 | COc1cnc2c3c(nccc13)-c1c(N(C)C)ccnc1C2=O [CRL 8441, 4-Methoxy-11-dimethylamino-7H-pyrido[4,3,2-de][1,7]phenanthroline-7-one] |  | 5000 | > 160 | 
19 | COc1ccnc2c1-c1nccc3c(OC)cnc(c13)C2=O [CRL 8440, 4,11-Dimethoxy-7H-pyrido[4,3,2-de][1,7]phenanthroline-7-one] |  | 10 | 20 | 

From patent publication US6809096B1, “Phenanthroline-7-one derivatives and their therapeutic uses” (Laboratoire L. Lafon, priority 1999, dated 2004)
